Data reported in publication PMC4357699, “Identification of a second GTP-bound magnesium ion in archaeal initiation factor 2” (Nucleic Acids Research, 2015).

Tests used:
Assay in all cases: nitrocellulose filter binding of [3H]GDP
Settings in all cases: read-out: apparent Kd
[1] = target: T1, Ss-aIF2 (aIF2 heterotrimer, αβγ) (Saccharolobus solfataricus, UniProt Q980A5, H97A)
T1 construct: gene eif2g; full heterotrimer of α, β and γ subunits, purified; gamma from pET15b-Ss-aIF2γ; with Translation initiation factor 2 subunit alpha; Translation initiation factor 2 subunit beta
T1 sequence (Q980A5 whole entry H97A): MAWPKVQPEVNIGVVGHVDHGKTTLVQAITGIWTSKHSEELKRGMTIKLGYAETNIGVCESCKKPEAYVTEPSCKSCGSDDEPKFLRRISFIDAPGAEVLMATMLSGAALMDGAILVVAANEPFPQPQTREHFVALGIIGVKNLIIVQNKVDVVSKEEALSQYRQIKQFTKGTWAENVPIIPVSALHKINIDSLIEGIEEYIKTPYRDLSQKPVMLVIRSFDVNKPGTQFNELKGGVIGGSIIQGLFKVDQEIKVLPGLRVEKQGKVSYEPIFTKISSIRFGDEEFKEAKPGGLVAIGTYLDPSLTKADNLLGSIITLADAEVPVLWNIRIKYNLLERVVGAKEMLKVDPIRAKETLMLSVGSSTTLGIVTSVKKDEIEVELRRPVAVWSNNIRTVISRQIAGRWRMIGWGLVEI
T1 sequence (Q97W59 whole entry, further chain): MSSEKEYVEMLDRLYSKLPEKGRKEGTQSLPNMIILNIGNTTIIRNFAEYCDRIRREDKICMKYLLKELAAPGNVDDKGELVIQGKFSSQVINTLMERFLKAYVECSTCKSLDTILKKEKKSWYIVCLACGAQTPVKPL
T1 sequence (Q97Z79 whole entry, further chain): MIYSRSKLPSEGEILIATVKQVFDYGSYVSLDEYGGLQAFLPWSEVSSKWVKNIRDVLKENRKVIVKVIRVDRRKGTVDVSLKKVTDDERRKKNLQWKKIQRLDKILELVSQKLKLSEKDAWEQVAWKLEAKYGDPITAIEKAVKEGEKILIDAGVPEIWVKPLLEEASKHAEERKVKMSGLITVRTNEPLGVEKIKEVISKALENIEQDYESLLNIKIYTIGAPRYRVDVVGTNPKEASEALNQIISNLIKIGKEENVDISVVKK

[2] = target: T2, Ss-aIF2 (aIF2 heterotrimer, αβγ) (Saccharolobus solfataricus, UniProt Q980A5, D19A)
T2 construct: gene eif2g; full heterotrimer of α, β and γ subunits, purified; gamma from pET15b-Ss-aIF2γ; with Translation initiation factor 2 subunit alpha; Translation initiation factor 2 subunit beta
T2 sequence (Q97W59 whole entry): as the sequence (Q97W59 whole entry, further chain) above
T2 sequence (Q97Z79 whole entry, further chain): as the sequence (Q97Z79 whole entry, further chain) above
T2 sequence (Q980A5 whole entry D19A): as the sequence (Q980A5 whole entry H97A) above, with D19A, A97H counted along it

[3] = target: T3, Ss-aIF2 (aIF2 heterotrimer, αβγ) (Saccharolobus solfataricus, UniProt Q980A5)
T3 construct: gene eif2g; full heterotrimer of α, β and γ subunits, purified; gamma from pET15b-Ss-aIF2γ; with Translation initiation factor 2 subunit alpha; Translation initiation factor 2 subunit beta
T3 sequence (Q97Z79 whole entry): as the sequence (Q97Z79 whole entry, further chain) above
T3 sequence (Q97W59 whole entry, further chain): as the sequence (Q97W59 whole entry, further chain) above
T3 sequence (Q980A5 whole entry): as the sequence (Q980A5 whole entry H97A) above, with A97H counted along it

Kd [1]: 0.34 ± 0.1 µM | Kd [2]: 0.24 ± 0.1 µM | Kd [3]: 0.52 ± 0.12 µM
Compound: Nc1nc2c(ncn2[C@@H]2O[C@H](COP(=O)(O)OP(=O)(O)O)[C@@H](O)[C@H]2O)c(=O)[nH]1 [GDP]
